Common to all, as to format: cell-based
The test system of one assay is HCT 116. The experiment in a line: SRB cell proliferation assay, HCT 116. The following applies: Homo sapiens, 72 hours, SRB assay, read-out: CELLULAR IC50 HCT 116. Here is the method:
(§1) We observed the surprising finding that compounds of the invention were useful in inhibiting proliferation of tumor cell lines (see Table 3).
(§2) Cells were exposed to the test compounds at various concentrations appropriate to determine an IC50 for 72 hours. Cell proliferation was measured using the SRB assay according to Shekan et al (J Natl Cancer Inst (1990) 82, 1107-112) in order to estimate the IC50 values shown in Table 3. Briefly, cells were plated in 96 well dishes 24 hours prior to compound addition at the densities specified in Table 5.1. The assay was terminated with the addition of cold TCA to a final concentration of 10% after growth medium has been removed and the plates were incubated over night at 4°C. The plates were then washed 5 times with water and 100µl of a Sulforhodamine B solution (4%) was added to each well. The plates were then incubated for 10 minutes at room temperature before removal of unbound dye by washing with 1% acetic acid. The bound dye was solubilised with 10 mM Trizma base and the absorbance read at OD520.
(§3) Inhibitory activity of the compounds (IC) was calculated as % inhibition of cell proliferation compared to cells treated with the solvent (DMSO).
(§4) Table 8.1: 18-Cell Line Panel
In general terms: Sulforhodamine B stains cellular protein and so reports cell mass.

A further assay deals with HT-29. The assay can be described thus: SRB cell proliferation assay, HT-29. The following applies: Homo sapiens, 72 hours, SRB assay, read-out: CELLULAR IC50 HT-29. The procedure:
as §1, §2, §3, §4

For the next assay, the system named is IMR-90. The experiment in a line: SRB cell proliferation assay, IMR-90. The following applies: Homo sapiens, 72 hours, SRB assay, slow cycling cell line, read-out: CELLULAR IC50 IMR-90. Here is the method: as §1, §2, §3, §4
The target of the next assay is Plk1 (Homo sapiens, UniProt P53350). The assay can be described thus: Cellular Plk1 kinase activity: nucleophosmin (B23) Ser4 phosphorylation in HCT116 cells (MSD electrochemiluminescence). On the set-up: host or cells: HCT116. The following applies: 100 ng/ml nocodazole, 4 hours after compound addition, read-out: Biochemical IC50 Nucleophosmin assay. The procedure:
We observed the surprising finding that compounds of the invention were able to penetrate cell membranes and retained their activity as Plk1 inhibitors against native Plk1 expressed within living cancer cells.
Cellular Plk1 kinase activity was measured by quantification of nucleophosmin (B23) Ser4 phosphorylation in a cancer cell line. Nucleophosmin (B23) Ser4 is phosphorylated by Plk1, and this phosphorylation can be specifically detected by cross-reactivity of a phospho-Mek1/2 antibody that is able to recognizes a mitotic-specific phosphorylated form of nucleophosmin (B23) in a nocodazole dependent way (Zhang, H., Shi, X., Paddon, H., Hampong, M., Dai, W., and Pelech, S. (2004) B23/Nuleophosmin Serin 4 Phosphorylation Mediates Mitotic Functions of Polo-like Kinase 1. J. Biol. Chem., 279(34), 35726-35734).
Briefly, HCT116 cells (ATCC, Order No. CCL-247) were plated in 96 well dishes 24 hours prior to nocodazole treatment at 25 000 cells per well. Cells were then treated with 100 ng/ml nocodazole (Sigma-Aldrich, # M1404). 20 hours after nocodazole treatment, cells were exposed to the test compounds at various concentrations appropriate to determine an IC50. 4 hours after compound addition, medium was carefully removed and 120 µl of Complete Tris Lysis Buffer (R60TX; MSD, Gaithersburg MD) was added to each well. Samples were then stored at -20°C.
The level of nucleophosmin (B23) Ser4 phosphorylation in these cell lysis samples was estimated by electrochemiluminescence detection using the Meso Scale Discovery ("MSD") Technology Platform (MSD, Gaithersburg MD). The protocol used was as recommended by the manufacturer with the use of a phospho-Mek1/2 antibody (Cell Signalling, #9121) as primary antibody, and is as follows.
The cell lysates were thawed at room temperature and 40 µl were incubated on 96-well MULTI-ARRAY High Bind plates (L11XB; MSD) for 1.5 - 2 hours at room temperature. The supernatants were then removed and 150 µl of a 5% (w/v) solution of Blocker A (R93AA; MSD) in Tris Wash Buffer (R61TX; MSD) were added to each well. The plates were then incubated for 1 hour at room temperature before removal of the Blocker A solution and washed 4 times with 200 µl Tris Wash Buffer. 25 µl primary antibody (anti-phospho-MEK1/2, Cell Signalling, #9121, rabbit polyclonal), diluted 1:250 in a 1% (w/v) solution of Blocker A in Tris Wash Buffer, were added to each well. The plates were then incubated for 1 hour at room temperature before removal of the antibody solution and washed 4 times with 200 µl Tris Wash Buffer. Then, 25 µl of labelled secondary antibody (SULFO-TAG Goat Anti-Rabbit IgGAntibody (R32AB; MSD), diluted 1:500 in a 1% (w/v) solution of Blocker A in Tris Wash Buffer) were added to each well. The plates were then incubated for 1 hour at room temperature before removal of the antibody solution and washed 4 times with 200 µl Tris Wash Buffer. Then, […] of 1x Read Buffer T (R92TC; MSD) were carefully added to each well and the plates were quantitatively detected for each well with a SECTOR™ Imager 6000 (MSD).
Inhibitory activity of the compounds (IC) was calculated as % inhibition of nucleophosmin (B23) Ser4 phosphorylation compared to cells not treated with nocodazole.

Where two headings read alike, the source gives them in different places. A value given as a limit tells only on which side of the number the result lay.

Plk1, sequence (P53350 whole entry, species assumed): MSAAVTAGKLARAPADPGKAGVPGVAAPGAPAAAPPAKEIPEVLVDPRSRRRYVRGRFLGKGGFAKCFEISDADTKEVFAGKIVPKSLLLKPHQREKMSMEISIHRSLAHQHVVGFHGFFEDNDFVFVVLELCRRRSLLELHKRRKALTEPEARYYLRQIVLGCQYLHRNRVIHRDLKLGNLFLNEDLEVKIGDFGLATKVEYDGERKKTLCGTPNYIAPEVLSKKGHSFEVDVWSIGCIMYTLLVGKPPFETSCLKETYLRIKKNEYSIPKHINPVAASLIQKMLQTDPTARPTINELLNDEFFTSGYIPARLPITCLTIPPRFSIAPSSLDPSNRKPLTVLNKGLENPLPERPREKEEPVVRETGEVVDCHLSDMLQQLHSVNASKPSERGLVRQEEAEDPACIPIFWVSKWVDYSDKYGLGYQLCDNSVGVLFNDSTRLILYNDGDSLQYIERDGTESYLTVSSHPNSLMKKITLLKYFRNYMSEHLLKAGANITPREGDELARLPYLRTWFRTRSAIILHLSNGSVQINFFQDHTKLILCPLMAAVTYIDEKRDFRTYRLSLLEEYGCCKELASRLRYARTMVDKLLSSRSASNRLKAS

What is called IC50 is the midpoint of a concentration-inhibition curve. With `CCC1C(=O)N(C)c2cnc(Nc3ccc(C(=O)NC4CCN(C)CC4)cc3OC)nc2N1N(C)C` (single isomer, unassigned) [Compound 36, 4-(8-dimethylamino-7-ethyl-5-methyl-6-oxo-5,6,7,8-tetrahydro-pteridin-2-ylamino)-3-methoxy-N-(1-methyl-piperidin-4-yl)-benzamide], the concentration for half-maximal inhibition (IC50) with HCT 116 (HCT-116, 72 h) was greater than 1000 nM; in the assay with HT-29 (HT-29, 72 h) it was greater than 1000 nM; in the assay with IMR-90 it was greater than 1000 nM; at Plk1 it was greater than 1000 nM.
On to `CCC1C(=O)N(C)c2cnc(Nc3ccc(C(=O)NCCN4CCCC4)cc3OC)nc2N1N(C)C` (stereo not shown) [Compound 2, 4-(8-Dimethylamino-7-ethyl-5-methyl-6-oxo-5,6,7,8-tetrahydro-pteridin-2-ylamino)-3-methoxy-N-(2-pyrrolidin-1-yl-ethyl)-benzamide], for which the IC50 was less than 1000 nM with HCT 116 (HCT-116, 72 h); less than 1000 nM in the assay with HT-29 (HT-29, 72 h); greater than 1000 nM with IMR-90; less than 100 nM at Plk1.
For `CCC1C(=O)N(C)c2cnc(Nc3ccc(C(=O)NCC4CCN(CC)CC4)cc3OC)nc2N1N(C)C` (stereo not shown) [Compound 3, 4-(8-Dimethylamino-7-ethyl-5-methyl-6-oxo-5,6,7,8-tetrahydro-pteridin-2-ylamino)-N-(1-ethyl-piperidin-4-ylmethyl)-3-methoxy-benzamide], the concentration for half-maximal inhibition (IC50) is less than 1000 nM in the assay with HCT 116 (HCT-116, 72 h); less than 1000 nM in the assay with HT-29 (HT-29, 72 h); greater than 1000 nM in the assay with IMR-90; less than 100 nM at Plk1.
For the compound `CCC1C(=O)N(C)c2cnc(Nc3ccc(C(=O)NC4CCN(C(C)C)CC4)cc3OC)nc2N1N(C)C` (stereo not shown) [Compound 4, 4-(8-Dimethylamino-7-ethyl-5-methyl-6-oxo-5,6,7,8-tetrahydro-pteridin-2-ylamino)-N-(1-isopropyl-piperidin-4-yl)-3-methoxy-benzamide], the IC50 with HCT 116 (HCT-116, 72 h) was less than 1000 nM; with HT-29 (HT-29, 72 h), less than 1000 nM; in the assay on IMR-90, greater than 1000 nM; on Plk1, less than 100 nM.
Take `CCC1C(=O)N(C)c2cnc(Nc3ccc(C(=O)NCc4ccc(N5CCN(C)CC5)cc4)cc3OC)nc2N1N(C)C` (stereo not shown) [Compound 11, 4-(8-Dimethylamino-7-ethyl-5-methyl-6-oxo-5,6,7,8-tetrahydro-pteridin-2-ylamino)-3-methoxy-N-[4-(4-methyl-piperazin-1-yl)-benzyl]-benzamide]: the IC50 is less than 1000 nM in the assay on HCT 116 (HCT-116), less than 1000 nM in the assay with HT-29 (HT-29), greater than 1000 nM in the assay with IMR-90 and less than 100 nM on Plk1.
For the compound `CCC1C(=O)N(C)c2cnc(Nc3ccc(C(=O)NCC4CCN(Cc5ccccc5)CC4)cc3OC)nc2N1N(C)C` (stereo not shown) [Compound 12, N-(1-Benzyl-piperidin-4-ylmethyl)-4-(8-dimethylamino-7-ethyl-5-methyl-6-oxo-5,6,7,8-tetrahydro-pteridin-2-ylamino)-3-methoxy-benzamide], the concentration for half-maximal inhibition (IC50) is less than 1000 nM in the assay on HCT 116 (HCT-116, 72 h); less than 1000 nM in the assay with HT-29 (HT-29, 72 h); greater than 1000 nM with IMR-90; less than 100 nM on Plk1.
Consider `CCC1C(=O)N(C)c2cnc(Nc3ccc(C(=O)NC4CCN(C)CC4)cc3OC)nc2N1N(C)Cc1ccccc1` (stereo not shown) [Compound 15, 4-[8-(Benzyl-methyl-amino)-7-ethyl-5-methyl-6-oxo-5,6,7,8-tetrahydro-pteridin-2-ylamino]-3-methoxy-N-(1-methyl-piperidin-4-yl)-benzamide], for which the IC50 in the assay on HCT 116 (HCT-116, 72 h) is less than 1000 nM; with HT-29 (HT-29, 72 h) it was less than 1000 nM; in the assay with IMR-90, greater than 1000 nM; at Plk1, less than 100 nM.
Take `CCC1C(=O)N(C)c2cnc(Nc3ccc(C(=O)NC4CCN(C)CC4)cc3OC)nc2N1N(C)CC1CC1` (stereo not shown) [Compound 17, 4-[8-(Cyclopropylmethyl-methyl-amino)-7-ethyl-5-methyl-6-oxo-5,6,7,8-tetrahydro-pteridin-2-ylamino]-3-methoxy-N-(1-methyl-piperidin-4-yl)-benzamide]: the IC50 was less than 1000 nM with HCT 116 (HCT-116, 72 h); less than 1000 nM in the assay with HT-29 (HT-29, 72 h); greater than 1000 nM with IMR-90; less than 500 nM on Plk1.
Consider `CCCN(C)N1c2nc(Nc3ccc(C(=O)NC4CCN(C)CC4)cc3OC)ncc2N(C)C(=O)C1CC` (stereo not shown) [Compound 20, 4-[7-Ethyl-5-methyl-8-(methyl-propyl-amino)-6-oxo-5,6,7,8-tetrahydro-pteridin-2-ylamino]-3-methoxy-N-(1-methyl-piperidin-4-yl)-benzamide], for which the half-maximal inhibitory concentration (IC50) with HCT 116 (HCT-116, 72 h) was less than 1000 nM; in the assay on HT-29 (HT-29, 72 h), less than 1000 nM; in the assay on IMR-90, greater than 1000 nM; at Plk1, less than 100 nM.
Regarding `CCC1C(=O)N(C)c2cnc(Nc3ccc(C(=O)NCC4CCN(CC)CC4)cc3OC)nc2N1N(C)Cc1ccccc1` (stereo not shown) [Compound 21, 4-[8-(Benzyl-methyl-amino)-7-ethyl-5-methyl-6-oxo-5,6,7,8-tetrahydro-pteridin-2-ylamino]-N-(1-ethyl-piperidin-4-ylmethyl)-3-methoxy-benzamide], the IC50 in the assay with HCT 116 (HCT-116, 72 h) is less than 1000 nM; in the assay with HT-29 (HT-29, 72 h), less than 1000 nM; in the assay on IMR-90, greater than 1000 nM; on Plk1, less than 500 nM.
Regarding `CCC1C(=O)N(C)c2cnc(Nc3ccc(C(=O)NC4CCN(C)CC4)cc3OC)nc2N1N(C)CC(C)C` (stereo not shown) [Compound 22, 4-[7-Ethyl-8-(isobutyl-methyl-amino)-5-methyl-6-oxo-5,6,7,8-tetrahydro-pteridin-2-ylamino]-3-methoxy-N-(1-methyl-piperidin-4-yl)-benzamide], the concentration for half-maximal inhibition (IC50) was less than 1000 nM in the assay on HCT 116 (HCT-116, 72 h); less than 1000 nM with HT-29 (HT-29, 72 h); greater than 1000 nM in the assay on IMR-90; less than 100 nM on Plk1.
For the compound `CCC1C(=O)N(C)c2cnc(Nc3ccc(C(=O)NCC4CCN(CC)CC4)cc3OC)nc2N1N(C)CC(C)C` (stereo not shown) [Compound 23, 4-[7-Ethyl-8-(isobutyl-methyl-amino)-5-methyl-6-oxo-5,6,7,8-tetrahydro-pteridin-2-ylamino]-N-(1-ethyl-piperidin-4-ylmethyl)-3-methoxy-benzamide], the IC50 was less than 1000 nM with HCT 116 (HCT-116, 72 h); less than 1000 nM in the assay on HT-29 (HT-29, 72 h); greater than 1000 nM in the assay on IMR-90; less than 100 nM at Plk1.
Consider `CCC1C(=O)N(C)c2cnc(Nc3ccc(C(=O)NC4CCN(C)CC4)cc3OC)nc2N1N(C)CC1CCCC1` (stereo not shown) [Compound 27, 4-[8-(Cyclopentylmethyl-methyl-amino)-7-ethyl-5-methyl-6-oxo-5,6,7,8-tetrahydro-pteridin-2-ylamino]-3-methoxy-N-(1-methyl-piperidin-4-yl)-benzamide], for which the IC50 in the assay with HCT 116 (HCT-116, 72 h) was less than 1000 nM; in the assay with HT-29 (HT-29, 72 h), less than 1000 nM; in the assay with IMR-90 it was greater than 1000 nM; at Plk1, less than 100 nM.

Source of the values: EP2112152A1, “Dihydropteridinones as Plk Inhibitors” (GPC Biotech AG, priority 2008, dated 2009).
